# Where a name gives a salt, the structure may show the parent alone.
# Legend:
# Format in all cases: in vivo
# [1] = Test Example 1: body weight gain inhibiting effect; settings: KKA^y mice, 8/group, in powder diet, pioglitazone 5 mg/kg/day, extract powder of Preparation Example 1 1.5 g/kg/day
# Description: (§1) Divided into groups of 8 mice, 7-week old KKA^y mice which were genetically obese diabetic animals were used. Group (a) was fed only on a powder diet (CE-2, produced by Clea Japan, Inc.) for 5 weeks, and Group (b), Group (c) and Group (d) were given pioglitazone, the extract powder of Preparation Example 1, and pioglitazone and the extract powder of Preparation Example 1, respectively, for 5 weeks by preparing a powder diet so that the daily dose of each therein was of the values shown in Table 1. During the period of the test, body weights were measured, and the formulation of the diet were adjusted in accordance with an increase or decrease in body weight to keep the doses per day in Group (b) and Group (d) constant.
# The results were evaluated by comparing the body weight gain observed in each of Groups (a), (b), (c) and (d) (Student's t-test).
# KKA^y mice [2] = experiment: Test Example 2: hypoglycemic effect (blood glucose level in serum); settings: in powder diet, pioglitazone 5 mg/kg/day, extract powder of Preparation Example 1 1.5 g/kg/day
# Description: as §1
# Tests were carried out in the same manner as in Test Example 1. The blood was collected 1 week and 5 weeks after commencement of the administration, and the serum was separated to measure the blood glucose levels.
# [3] = Test Example 3: body weight gain inhibiting effect; settings: KKA^y mice, 7/group, in powder diet, pioglitazone 5 mg/kg/day, extract powder of Preparation Example 2 6.4 g/kg/day
# Experimental: (§2) Divided into groups of 7 mice, 7-week old KKA^y mice which were genetically obese diabetic animals were used, and the tests were carried out in the same manner as in Test Example 1, except Group (c) and (d) were given the extract powder of Preparation Example 2, and pioglitazone and the extract powder of Preparation Example 2, respectively, for 4 weeks by preparing the powder diet so that the daily dose each therein was of the values shown in Table 4.
# The results were evaluated in the same manner as in Test Example 1.
# KKA^y mice [4] = experiment: Test Example 4: hypoglycemic effect (blood glucose level in serum); settings: in powder diet, pioglitazone 5 mg/kg/day, extract powder of Preparation Example 2 6.4 g/kg/day
# Experimental: as §2
# The test was carried out in the same manner as in Test Example 3. The blood was collected 1 week and 4 weeks after commencement of the administration, and the serum was separated to measure the blood glucose levels.
# The results were evaluated in the same manner as in Test Example 2.
compound,measurement,setting,value
"CCc1ccc(CCOc2ccc(CC3SC(=O)NC3=O)cc2)nc1 (centres unmarked) [Pioglitazone, pioglitazone hydrochloride]","Body weight gain, 1 week after administration",[1]; 1 week,5.2 ± 0.2 g
same,"Body weight gain, 5 weeks after administration",[1]; 5 weeks,11.8 ± 0.6 g
same,"Blood glucose level, 1 week after the administration",KKA^y mice [2]; 1 week,404 ± 28 mg/dL
same,"Blood glucose level, 5 weeks after the administration",KKA^y mice [2]; 5 weeks,527 ± 18 NS mg/dl
same,"Body weight gain, 1 week after administration",[3]; 1 week,5.3 ± 0.4 g
same,"Body weight gain, 4 weeks after administration",[3]; 4 weeks,10.7 ± 0.5 g
same,"Blood glucose level, 1 week after the administration",KKA^y mice [4]; 1 week,320 ± 30 mg/dL
same,"Blood glucose level, 4 weeks after the administration",KKA^y mice [4]; 4 weeks,587 ± 24 NS mg/dl

# Reference: US20060193925A1, “Side effect-relieving agents and/or hypoglycemic effect enhancers for thiazolidine compounds” (KANEBO, LIMITED, priority 2001, published 2006)
